SMILES strings stand for the structures. Activity calls are given as the source filed them.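 How the source made its calls: active means EC50 no more than a set limit of log units above the highest dose; inactive means the rest.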

The target in this assay is S. pyogenes SKKanGAS, kanamycin survival, BacTiterGlo, 6 h. Briefly: SKKanGAS survival reduction under kanamycin, dose response, streptokinase promoter inhibitor project, SKKanGAS strain, luminescence, dose confirmation (AID 1902).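 Further: lower survival reflects blocked streptokinase promoter driving kanamycin resistance gene.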
One may read the EC50 as the concentration at which the effect is half-maximal. Consider `Cc1c(NCc2cc(Cl)cc(Cl)c2O)c(=O)n(-c2ccccc2)n1C`, for which the EC50 is 3.39 µM.
Next, `CCCN(CCC)S(=O)(=O)c1ccc(C(=O)Nc2nnc(-c3cc(OC)cc(OC)c3)o2)cc1`: 0.192 µM.
Next, `COc1ccc(NC(=O)c2cc(-c3cc(C)cc(C)c3O)n[nH]2)cc1Cl`: 2.25 µM; `CC(C)(C)[C@H]1CCC(=O)N([C@H](CSc2ccccc2)Cc2ccccc2)CC1`: 3.51 µM; `Clc1ccccc1Sc1ccc(-c2ccccn2)s1`: 5.48 µM.
For the compound `O=C(NC(NC(=S)Nc1ccc(Cl)c(Cl)c1)C(Cl)(Cl)Cl)c1ccco1` (stereo not given), the EC50 is 3.41 µM.
As for `COc1cc(NS(=O)(=O)c2ccc(C)cc2)c2ncccc2c1`, the figure is 0.777 µM; as for `O=C(NNC(=O)c1cc(-c2ccc(Cl)cc2)nc2ccccc12)c1csc(N2CCOCC2)n1`, 3.78 µM.
`CCn1cc(C(=O)O)c(=O)c2cc(F)c(N3CCN(S(=O)(=O)c4ccc(NC(C)=O)cc4)CC3)cc21`: the EC50 was 4.65 µM.
As for `COc1ccccc1CN1CC(C(=O)NCc2ncccc2C)CCC1=O` (stereo not given), the figure is > 15 µM (inactive).
`N#Cc1c(-c2ccccc2)c(-c2ccccc2)nn(CC(=O)NNC(=O)Nc2ccc(Cl)c(Cl)c2)c1=O`: the EC50 is 5.3 µM.
Next, `Cn1cnnc1SCc1ccc(C(=O)N=Nc2c(O)n(Cc3ccc(Cl)cc3)c3ccccc23)cc1`: 4.51 µM; `CCC(=O)NC(=S)Nc1ccc(NC(=S)NC(=O)c2ccccc2)cc1`: 0.805 µM.
Next, `CCCCCCCC(=O)NNC(=O)c1c(O)c2ccccc2n(CC)c1=O`: 1.3 µM; `COc1ccccc1C(=O)NNC(=O)C(=O)Nc1cccc(Cl)c1C`: 3.44 µM; `CC(C)(C)OC(=O)[C@H](Cc1ccccc1)NC(=O)c1[nH]cnc1C(=O)Nc1ccc(Cl)cc1`: 3.52 µM.
As for `COc1ccc(NC(=O)c2cccc(-c3ccc(O)cc3)c2)cn1`, the figure is 13 µM; as for `CCN1/C(=C/c2ccc3ccccc3[n+]2CC)C=Cc2ccccc21`, 6.08 µM.
As to `CCOc1ccc(-n2c(C)cc(/C=C3/C(=N)N4C(=NC3=O)SN=C4S(C)(=O)=O)c2C)cc1`, the EC50 was 0.938 µM.
With `N#Cc1ccc(C(=O)Nc2nc(SCc3ccc(Cl)cc3)n[nH]2)cc1`, the EC50 was 1.52 µM.
As for `COc1cccc(/C=N/Nc2cc(C)nc(-c3ccccc3O)n2)c1O`, the EC50 was 1.96 µM.
Turning to `O=C1CN(/N=C/c2ccc([N+](=O)[O-])o2)C(=O)N1`, the EC50 is 5.83 µM.
Turning to `C=C(C)COc1ccc(-c2n[nH]c(C)c2-c2ccc(Br)cc2)c(O)c1`, the EC50 was 2.21 µM.
Next, `O=C(Nc1ccccc1Sc1ccccc1)c1ccccc1F`: 4.53 µM.
Next, `CO[C@H]1C=CO[C@@]2(C)Oc3c(C)c(O)c4c(O)c(c5c(c4c3C2=O)NC2(CCN(CC(C)C)CC2)N=5)=NC(=O)C(C)=CC=C[C@H](C)[C@H](O)[C@@H](C)[C@@H](O)[C@@H](C)[C@H](OC(C)=O)[C@@H]1C`: less than 0.06 µM.
In the case of `CCOc1ccc(N=Nc2ccc(O)c3ncccc23)cc1`, the EC50 was 0.186 µM.
As for `COc1ccccc1-n1cnc2c(c1=O)c1nc3ccccc3nc1n2-c1ccc(C)c(C)c1`, the EC50 is 9.11 µM.
Next, `COc1cccc(Nc2c3c(nc4c(-c5ccccc5)c(C)nn24)CCC3)c1`: 1.8 µM; `CC(C)C[C@H](NC(=O)N1CC(=O)Nc2ccccc21)C(=O)N[C@H](C(=O)O)c1ccccc1`: > 15 µM (inactive); `Cc1nn(Cc2ccccc2Cl)c2sc(C(=O)Nc3ccccc3N3CCOCC3)cc12`: 2.92 µM.
With `CCN=C1S/C(=C\c2ccc(-c3cccc(C(=O)O)c3)o2)C(=O)N1CC`, the EC50 was 3.4 µM.
For the compound `CCc1ccc(-c2cc(C(=O)N/N=C/c3c[nH]c4ccccc34)[nH]n2)cc1`, the EC50 was 5.96 µM.
Take `Cc1ccccc1-n1nc(C(=O)c2cccs2)cc(-c2nc3ccccc3[nH]2)c1=N`: the 50% effective concentration (EC50) is 1.59 µM.
With `Cc1nnc(-c2cccc(Br)c2)c2cn(-c3ccc(Br)cc3)nc12`, the EC50 was 3.07 µM.
As for `NC(N)=N/N=C/c1ccc(OCc2ccccc2)c(OCc2ccccc2)c1`, the figure is 6.82 µM.

Values taken from PubChem BioAssay AID1902 (Broad Institute, 2009).
